Structures are written as SMILES.

One data set deals with T1, M1 receptor (Homo sapiens, UniProt P11229).
T1 sequence (P11229 1-460): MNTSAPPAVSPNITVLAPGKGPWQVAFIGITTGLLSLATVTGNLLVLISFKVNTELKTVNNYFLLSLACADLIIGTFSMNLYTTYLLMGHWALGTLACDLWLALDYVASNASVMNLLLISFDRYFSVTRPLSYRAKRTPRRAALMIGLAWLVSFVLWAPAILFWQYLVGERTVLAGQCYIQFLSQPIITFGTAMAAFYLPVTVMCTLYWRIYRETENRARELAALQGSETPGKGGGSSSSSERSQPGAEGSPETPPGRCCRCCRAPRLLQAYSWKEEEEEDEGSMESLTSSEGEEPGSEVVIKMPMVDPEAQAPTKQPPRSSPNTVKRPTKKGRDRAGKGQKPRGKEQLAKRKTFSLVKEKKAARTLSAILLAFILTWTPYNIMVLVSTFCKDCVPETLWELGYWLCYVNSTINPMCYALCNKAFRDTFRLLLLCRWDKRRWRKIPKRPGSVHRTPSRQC
As to the kind of experiment: Predicted target engagement for human efficacious dose (allometric scaling).

The subject of data set [1] is scPCP treated female Lister Hooded rats. In words: Attenuation of sub-chronic PCP-induced deficit in the operant reversal learning task. Type of data set: in vivo, rat. To be noted: p.o., 1 hour ptt. On the procedure: Investigate the ability of Example 1 (1, 3, 10 and 30 mg/kg, p.o., 1 hour pre-treatment time ptt) to attenuate the disruption of a cognitive task induced by sub-chronic treatment with phencyclidine (scPCP) in female Lister Hooded rats.
Female Lister Hooded rats were used for this experiment. The average weight of rats at the time of testing was 294 g±29 g. Rats were housed in groups of 3-5 under standard laboratory conditions under a 12 hr light: dark cycle (lights on at 0700 hr), and food restricted to 90% of free-feeding bodyweight (12 g of food per rat per day). Testing was carried out in the light phase. Rats were randomly assigned to two treatment groups and received vehicle, n=8 (0.9% saline solution, i.p.) or PCP, n=48 (2 mg/kg, i.p. twice daily for 7-days). On the day of testing, rats were randomly assigned to seven treatment groups (n=6-8 per group) to receive an acute treatment with Example 1 (1, 3, 10 and 30 mg/kg, p.o., 1 hour ptt) or vehicle. […]
Following habituation to the operant chambers, rats were trained to respond for food on an FR1 (Fixed Ratio 1) schedule of reinforcement with both levers active. […] Each session lasted 20 minutes and counts were recorded on each lever. […]
The day before each reversal learning task session, a full […] operant training session (as described above) was conducted to ensure stable responding. […] During this period, responses on both correct and incorrect levers were recorded. […] Responses made on the correct and incorrect levers were again recorded. […]
Data are presented as percent correct response (±S.E.M) with values for the initial and reversal phases are presented for the different drug treatment groups (FIG. 2). The percentage correct response data were used to determine whether there was a significant effect of drug on response accuracy (e.g. that might reflect cognitive dysfunction); Statistical significance was assumed when P<0.05 and was determined using one-way ANOVA in order to detect main effect of drug treatment in the initial and reversal phases.

Data set [2] is described as follows: Unbound brain/unbound plasma concentration ratio (Kp,uu). Type of data set: in vivo. Conditions: brain and plasma (unbound); measured unbound plasma:brain distribution; parameter used in prediction; read-out: Kpuu (unbound brain/unbound plasma concentration). An excerpt:
Kp,uu—ratio of unbound brain concentration/unbound plasma concentration. Quantifies the net flux of drug across the blood brain barrier, including the quantitative role of transporters, without being confounded by nonspecific binding in plasma and brain tissues. Gupta et al, DMD, 2006; Hammarlund-Udenaes et al, PharmRes, 2008

A short description of data set [3]: Hepatocyte stability, CLint (in vitro hepatocytes), monkey. The class given is in vitro ADME. To be noted: pooled cryopreserved hepatocytes, 1.0 million cells/mL, 37° C., read-out: in vitro intrinsic clearance (CLint). The procedure: (§1) Hepatocyte stability assays were performed using pooled cryopreserved hepatocytes (Bioreclamation). Test compounds prepared in DMSO, were incubated at an initial concentration of 1 μM (0.25% DMSO final, n=2) with hepatocytes at cell densities of 1.0 million cells/mL at 37° C. Aliquots were removed at 0.5, 5, 10, 15, 30, 60 and 120 minutes for termination of reactions and compound extraction with acetonitrile containing an analytical internal standard (0.5 μM carbamazepine). Samples were centrifuged and the supernatant fractions analysed for parent compound by mass spectrometry (LC-MS/MS). The amount of compound remaining (expressed as %) was determined from the MS response in each sample relative to that in the T=0 samples (normalised for internal standard). Ln plots of the % remaining were used to determine the half-life for compound disappearance using the relationship: Half-Life(min)=−0.693/λ (where λ is the slope of the Ln % remaining vs time curve).

The nature of data set [4]: Hepatocyte stability, CLint (in vitro hepatocytes), rat. Conditions: pooled cryopreserved hepatocytes, 1.0 million cells/mL, 37° C., read-out: in vitro intrinsic clearance (CLint). Type of data set: in vitro ADME. On the procedure: as §1
The nature of data set [5]: Hepatocyte stability, CLint (in vitro hepatocytes), human. Type of data set: in vitro ADME. To be noted: pooled cryopreserved hepatocytes, 1.0 million cells/mL, 37° C., read-out: in vitro intrinsic clearance (CLint). The procedure: as §1
The mark [6] stands for this setting: parameter used in human receptor occupancy prediction.

Source text for M1 receptor: Based on a measured equivalent unbound plasma:brain distribution profile (Kpuu=1) the exposures shown represent those in either the plasma or brain compartment.

As to `CC(C)(C)NC(=O)C1CCN([C@H]2C[C@H]3CC[C@@H](C2)N3c2nc(C(F)(F)F)no2)CC1` [Example 1, N-tert-butyl-1-{(1R,3r,5S)-8-[3-(trifluoromethyl)-1,2,4-oxadiazol-5-yl]-8-azabicyclo[3.2.1]octan-3-yl}piperidine-4-carboxamide], the “predicted dose to reach the unbound brain exposure required for M1 agonist efficacy” value on M1 receptor (human, oral, 6 hours unbound brain exposure over recombinant M1 EC50) is listed as “approx. 22 mg”. Also, the predicted human half-life on M1 receptor (human, predicted from allometric scaling) is 15 h. The “CI (clearance)” value at M1 receptor (setting [6]) was 4.4 mL/min/kg. For the same molecule, the “F (bioavailability)” value on M1 receptor (setting [6]) is reported as 0.61. Moreover, the Ka on M1 receptor (setting [6]) is recorded as 1. Also, the V on M1 receptor (setting [6]) is recorded as 5.9. For the same molecule, the “percent correct responding in the reversal phase vs scPCP group” value in data set [1] (1 mg/kg, P<0.05) is given as “increased percent correct responding”; in data set [1] (3 mg/kg, P<0.05), “increased percent correct responding”; in data set [1] (10 mg/kg, P<0.01), “increased percent correct responding”. In data set [2], the Kp uu is 1. For the same molecule, the hepatocyte CLint at 1 μM in data set [3] was under 5 µL/min/1e6 cells; in data set [4] it was 8 µL/min/1e6 cells; in data set [5] it was under 5 µL/min/1e6 cells.

The values above are taken from US11999745B2, “Pharmaceutical compounds” (Heptares Therapeutics Limited, priority 2020, dated 2024).
